# Assay results taken from paper PMC10179080, “In Vivo and In Vitro Characterization of Close Analogs of Compound KA-11, a New Antiseizure Drug Candidate” (International Journal of Molecular Sciences, 2023).
# Marks after values point to notes of the source that are not given here.
# Assays:
# [1] = system: tonic–clonic seizures in mice; settings: i.p.; cited from earlier work
# [2] = target: T1, CYP2D6 (Homo sapiens, UniProt P10635); set-up: method as in PMID 30247871; settings: cited from earlier work
# T1 construct: purchased Promega, Madison, WI, USA
# [3] = target: T2, TRPV1 (VR1) (antagonist effect) (Homo sapiens, UniProt Q8NER1); assay: TRPV1 antagonist functional assay (intracellular Ca2+, CHO cells); format: cell-based; settings: CHO; 100 µM; not published before; read-out: % Inhibition of control specific binding (functional, antagonist effect)
# T2 construct: host or cells: CHO cells
# Method: (§1) Binding studies were carried out commercially in Eurofins Laboratories (Poitiers, France or New Taipei City, Taiwan).
# [4] = system: seizure susceptibility in mice; set-up: method as in PMID 28412310; settings: 100 mg/kg; cited from earlier work
# [5] = target: T3, CYP3A4 (Homo sapiens, UniProt P08684); set-up: method as in PMID 26052884; settings: 10 µM; cited from earlier work
# T3 construct: purchased Promega, Madison, WI, USA
# [6] = system: Calcium Cav1.2 channels (dihydropyridine site, antagonist radioligand); set-up: method as in PMID 26052884; settings: 100 µM; cited from earlier work
# [7] = system: PTZ-induced clonic seizures in mice; settings: i.p., cited from earlier work
# [8] = system: Calcium Cav1.2 channels (diltiazem site, antagonist radioligand); set-up: method as in PMID 30247871; settings: 100 µM; cited from earlier work
# [9] = system: Na^+ channel (site 2); set-up: method as in PMID 26052884; settings: 100 µM; cited from earlier work
# [10] = target: GABAA (α1,β2,γ2) (agonist radioligand) (Homo sapiens, UniProt P14867+P47870); set-up: method as in PMID 30247871; settings: 100 µM; cited from earlier work
# [11] = system: neuromuscular strength in mice; set-up: method as in PMID 34074008; settings: single administration 30 mg/kg; cited from earlier work
# [12] = system: Calcium Cav1.2 channel (verapamil site, antagonist radioligand); set-up: method as in PMID 30247871; settings: 100 µM; cited from earlier work
# [13] = system: 6-Hz-induced psychomotor seizures in mice; settings: i.p., cited from earlier work
# [14] = set-up: method as in PMID 30247871; settings: cited from earlier work
# [15] = system: hepatoma HepG2; set-up: method as in PMID 30247871; settings: 10 µM; cited from earlier work
# [16] = system: motor performance in mice; settings: i.p.; cited from earlier work
# [17] = target: T4, hERG potassium channel (Homo sapiens, UniProt Q12809); assay: Radioligand binding, potassium channel (hERG); settings: human, human recombinant HEK-293 cells expressing hERG, KA-11 value not published before, read-out: % Inhibition of Control Specific Binding
# T4 construct: host or cells: HEK-293 cells
# Method: Dysfunction of both sodium and calcium ion channels is known to be one of the crucial reasons behind the pathogenesis of seizures. Consequently, these ion channels are molecular targets for several clinically important ASDs such as lacosamide, lamotrigine, carbamazepine, oxcarbazepine and compounds currently under preclinical and clinical studies. Thus, for KA-228 and KA-232, we tested herein their binding profile toward the aforementioned ion channels at concentrations of 10 and 100 µM (Table 3). […] Apart from in vitro studies focused on explaining the mechanism of action, KA-232 was additionally tested for its interaction with the potassium channel (hERG) which is recognized as one of the most important ‘off-targets’ responsible for harmful arrhythmogenic activity. Thus, the interaction of potential drug candidates with hERG must be excluded at an early stage of development.
# as §1
# [18] = system: Glutamate (AMPA, nonselective, antagonist radioligand, [3H] AMPA radioligand); set-up: method as in PMID 30247871; settings: 100 µM; cited from earlier work
# [19] = system: Glutamate (NMDA, nonselective, antagonist radioligand, [3H] Ifenprodil radioligand); set-up: method as in PMID 30247871; settings: 100 µM; cited from earlier work
# [20] = set-up: method as in PMID 26052884; settings: cited from earlier work
# [21] = target: T5, Calcium Cav2.2 channel (antagonist radioligand) (Rattus norvegicus, UniProt Q02294); set-up: method as in PMID 26052884; settings: 100 µM; cited from earlier work
# T5 construct: rat cerebral cortex; tissue Eurofins Laboratories; host or cells: rat cerebral cortex
# T1 sequence (P10635 whole entry): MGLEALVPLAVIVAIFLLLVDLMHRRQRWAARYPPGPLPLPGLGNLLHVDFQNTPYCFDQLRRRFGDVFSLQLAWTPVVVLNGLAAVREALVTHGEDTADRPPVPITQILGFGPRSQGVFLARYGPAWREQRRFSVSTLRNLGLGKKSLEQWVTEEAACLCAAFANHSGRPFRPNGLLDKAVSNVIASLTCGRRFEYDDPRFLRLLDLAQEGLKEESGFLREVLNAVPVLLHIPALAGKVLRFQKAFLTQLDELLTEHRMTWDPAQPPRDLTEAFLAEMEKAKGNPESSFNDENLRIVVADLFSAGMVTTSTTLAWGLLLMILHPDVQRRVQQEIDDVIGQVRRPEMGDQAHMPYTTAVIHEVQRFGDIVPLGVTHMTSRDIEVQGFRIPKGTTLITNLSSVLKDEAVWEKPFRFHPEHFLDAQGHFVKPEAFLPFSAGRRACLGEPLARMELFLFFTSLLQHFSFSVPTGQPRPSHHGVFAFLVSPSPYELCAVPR
# GABAA (α1,β2,γ2) (agonist radioligand), sequence (P14867 28-456): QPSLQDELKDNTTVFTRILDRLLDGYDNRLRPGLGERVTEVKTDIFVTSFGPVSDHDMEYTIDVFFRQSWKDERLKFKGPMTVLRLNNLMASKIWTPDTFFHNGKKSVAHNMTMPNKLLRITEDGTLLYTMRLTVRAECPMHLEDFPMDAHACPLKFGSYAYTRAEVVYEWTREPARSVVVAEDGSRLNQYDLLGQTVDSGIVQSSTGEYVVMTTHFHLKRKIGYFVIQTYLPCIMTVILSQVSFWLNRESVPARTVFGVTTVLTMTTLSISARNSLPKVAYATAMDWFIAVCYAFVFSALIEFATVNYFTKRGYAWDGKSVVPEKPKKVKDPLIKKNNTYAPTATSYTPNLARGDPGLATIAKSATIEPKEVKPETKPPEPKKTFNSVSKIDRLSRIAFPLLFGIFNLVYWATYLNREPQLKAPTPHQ
# GABAA (α1,β2,γ2) (agonist radioligand), sequence (P47870 25-512 limits assumed): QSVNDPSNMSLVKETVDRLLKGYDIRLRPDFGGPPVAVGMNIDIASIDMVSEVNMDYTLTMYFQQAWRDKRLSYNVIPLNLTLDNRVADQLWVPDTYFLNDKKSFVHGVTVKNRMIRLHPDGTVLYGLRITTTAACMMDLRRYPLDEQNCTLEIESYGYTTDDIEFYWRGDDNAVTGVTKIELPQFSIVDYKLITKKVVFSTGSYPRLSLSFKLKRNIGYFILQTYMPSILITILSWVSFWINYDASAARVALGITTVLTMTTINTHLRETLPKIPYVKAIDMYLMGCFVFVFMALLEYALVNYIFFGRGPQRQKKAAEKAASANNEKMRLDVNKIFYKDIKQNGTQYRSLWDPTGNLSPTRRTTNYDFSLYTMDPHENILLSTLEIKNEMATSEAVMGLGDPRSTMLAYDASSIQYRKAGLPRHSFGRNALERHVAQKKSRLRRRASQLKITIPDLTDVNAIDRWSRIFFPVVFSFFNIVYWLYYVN
# GABAA (α1,β2,γ2) (agonist radioligand), sequence (P18507 40-475 partner): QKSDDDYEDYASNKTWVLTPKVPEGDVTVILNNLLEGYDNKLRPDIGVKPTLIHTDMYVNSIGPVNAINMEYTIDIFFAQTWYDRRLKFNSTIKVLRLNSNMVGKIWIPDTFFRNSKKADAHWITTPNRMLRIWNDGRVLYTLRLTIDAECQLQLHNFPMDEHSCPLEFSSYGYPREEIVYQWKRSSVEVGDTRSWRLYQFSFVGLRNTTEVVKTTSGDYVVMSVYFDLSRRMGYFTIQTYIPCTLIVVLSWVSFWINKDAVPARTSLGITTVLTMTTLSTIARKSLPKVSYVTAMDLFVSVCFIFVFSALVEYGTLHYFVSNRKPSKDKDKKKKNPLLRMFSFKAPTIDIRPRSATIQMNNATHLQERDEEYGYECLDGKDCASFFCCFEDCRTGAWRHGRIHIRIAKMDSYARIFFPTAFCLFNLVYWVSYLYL
# T4 sequence (Q12809 whole entry): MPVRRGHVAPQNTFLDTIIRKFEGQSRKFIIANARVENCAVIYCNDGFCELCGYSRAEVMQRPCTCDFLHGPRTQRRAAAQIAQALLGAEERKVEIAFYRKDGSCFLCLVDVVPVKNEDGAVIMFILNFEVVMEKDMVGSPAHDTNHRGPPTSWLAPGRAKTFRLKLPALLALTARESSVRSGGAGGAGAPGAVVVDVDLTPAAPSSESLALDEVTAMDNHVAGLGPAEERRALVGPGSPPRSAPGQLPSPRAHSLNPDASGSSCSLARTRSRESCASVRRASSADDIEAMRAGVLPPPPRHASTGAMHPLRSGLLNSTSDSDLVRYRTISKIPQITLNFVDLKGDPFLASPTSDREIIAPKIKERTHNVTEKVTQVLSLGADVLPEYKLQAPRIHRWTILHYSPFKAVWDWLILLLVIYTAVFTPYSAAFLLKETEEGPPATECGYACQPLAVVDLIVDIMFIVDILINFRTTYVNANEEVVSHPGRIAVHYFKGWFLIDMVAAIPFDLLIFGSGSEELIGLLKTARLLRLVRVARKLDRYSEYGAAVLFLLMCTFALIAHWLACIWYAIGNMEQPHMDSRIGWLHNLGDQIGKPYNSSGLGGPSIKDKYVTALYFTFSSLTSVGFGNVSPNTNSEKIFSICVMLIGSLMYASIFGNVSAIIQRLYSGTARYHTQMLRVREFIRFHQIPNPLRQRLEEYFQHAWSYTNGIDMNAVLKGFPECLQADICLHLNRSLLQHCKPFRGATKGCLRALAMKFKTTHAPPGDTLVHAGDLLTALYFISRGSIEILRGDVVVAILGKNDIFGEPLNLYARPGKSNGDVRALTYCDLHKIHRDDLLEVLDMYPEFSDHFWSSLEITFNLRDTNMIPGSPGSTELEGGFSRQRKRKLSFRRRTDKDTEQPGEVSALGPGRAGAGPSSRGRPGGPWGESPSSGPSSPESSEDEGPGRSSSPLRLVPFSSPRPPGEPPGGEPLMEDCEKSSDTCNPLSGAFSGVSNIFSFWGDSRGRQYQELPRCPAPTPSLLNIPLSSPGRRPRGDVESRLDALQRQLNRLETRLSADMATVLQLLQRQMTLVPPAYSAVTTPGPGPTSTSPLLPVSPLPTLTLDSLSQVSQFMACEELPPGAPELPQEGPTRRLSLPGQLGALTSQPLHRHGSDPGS
# T3 sequence (P08684 whole entry): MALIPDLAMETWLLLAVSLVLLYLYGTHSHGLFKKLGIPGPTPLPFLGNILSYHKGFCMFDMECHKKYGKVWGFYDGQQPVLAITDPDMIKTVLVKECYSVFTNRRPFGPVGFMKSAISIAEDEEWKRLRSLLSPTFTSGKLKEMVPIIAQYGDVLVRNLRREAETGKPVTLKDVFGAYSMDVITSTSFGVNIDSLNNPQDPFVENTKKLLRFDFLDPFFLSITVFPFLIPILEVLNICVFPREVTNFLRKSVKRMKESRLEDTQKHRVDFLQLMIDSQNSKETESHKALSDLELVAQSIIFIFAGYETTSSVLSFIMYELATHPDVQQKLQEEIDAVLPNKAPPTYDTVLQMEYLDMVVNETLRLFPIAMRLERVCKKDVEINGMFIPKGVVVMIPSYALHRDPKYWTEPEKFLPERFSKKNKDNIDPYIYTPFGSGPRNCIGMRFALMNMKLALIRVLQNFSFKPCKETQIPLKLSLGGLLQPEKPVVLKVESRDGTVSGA
# T2 sequence (Q8NER1 whole entry): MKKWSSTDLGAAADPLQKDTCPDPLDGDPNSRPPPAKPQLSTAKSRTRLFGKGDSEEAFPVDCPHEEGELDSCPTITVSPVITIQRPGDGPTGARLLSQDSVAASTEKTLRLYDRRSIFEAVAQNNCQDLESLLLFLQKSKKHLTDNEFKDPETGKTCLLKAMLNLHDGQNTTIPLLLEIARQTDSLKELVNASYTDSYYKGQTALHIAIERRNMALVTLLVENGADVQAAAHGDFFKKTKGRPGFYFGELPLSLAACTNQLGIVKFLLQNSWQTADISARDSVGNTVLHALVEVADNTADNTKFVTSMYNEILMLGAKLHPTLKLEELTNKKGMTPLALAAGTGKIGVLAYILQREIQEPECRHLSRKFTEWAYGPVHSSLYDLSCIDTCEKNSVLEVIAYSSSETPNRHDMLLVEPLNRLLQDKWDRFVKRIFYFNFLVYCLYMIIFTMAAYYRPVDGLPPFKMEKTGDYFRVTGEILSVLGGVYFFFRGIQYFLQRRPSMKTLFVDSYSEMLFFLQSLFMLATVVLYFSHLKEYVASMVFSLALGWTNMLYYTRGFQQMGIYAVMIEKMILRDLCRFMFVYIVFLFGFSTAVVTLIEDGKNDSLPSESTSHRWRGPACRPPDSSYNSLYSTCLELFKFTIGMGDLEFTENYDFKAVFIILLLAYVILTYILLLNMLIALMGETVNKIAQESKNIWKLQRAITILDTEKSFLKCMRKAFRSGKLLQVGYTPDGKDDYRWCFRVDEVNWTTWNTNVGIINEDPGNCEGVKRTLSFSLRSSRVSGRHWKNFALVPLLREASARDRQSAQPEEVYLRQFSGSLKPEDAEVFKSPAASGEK
smiles,measurement,setting,value
CC(C(=O)N1CCN(c2cccc(C(F)(F)F)c2)CC1)N1C(=O)CCC1=O (stereo not shown) [KA-11],ED50 MES ± SD,[1],88.4 ± 34.16 mg/kg
same,"TI (TD50/ED50), MES",[1],> 16.97
same,CYP2D6 activity (% of control ± SD),[2]; 10 µM,122.30 ± 2.02 [9] % of control
same,effect on CYP2D6 activity,[2]; at 1 and 10 µM,slight induction
same,inhibition at 100 µM,[3],33%
same,"effect on thresholds for all studied endpoints (myoclonic twitch, generalized clonus, forelimb tonus)",[4],significant increase
same,CYP3A4 activity (% of control ± SD),[5],99.21 ± 4.9 [6] % of control
same,% Inhibition of Control Specific Binding,[6],64.2 (100) * %
same,ED50 PTZ ± SD,[7]; scPTZ,59.9 ± 19.55 mg/kg
same,"TI (TD50/ED50), PTZ",[7],> 25.04
same,% Inhibition of Control Specific Binding,[8],44.9 (100) ^# %
same,% Inhibition of Control Specific Binding,[9],37.4 (100) * %
same,% Inhibition of Control Specific Binding,[10],−28.1 (100) ^# %
same,effect on muscle strength,[11],no statistically significant abnormalities
same,% Inhibition of Control Specific Binding,[12],1.5 (100) ^# %
same,ED50 6 Hz ± SD,[13]; 32 mA,21.0 ± 32.19 mg/kg
same,"TI (TD50/ED50), 6 Hz",[13],> 71.43
same,PAMPA Pe ± SD,[14],27.1 ± 3.8 ^b [9] 10^−6 cm/s
same,HepG2 viability (% of control ± SD),[15],99.78 ± 2.18 [9] % of control
same,TD50,[16],>1500 mg/kg
same,"inhibition at 60 min, 100 µM",[17],15%
same,% Inhibition of Control Specific Binding,[18],−2.9 (100) ^# %
same,% Inhibition of Control Specific Binding,[19],13.0 (100) ^# %
same,Metabolic stability (% remaining after incubation with HLMs),[20],73.49 [6] %
same,% Inhibition of Control Specific Binding,[21],13.9 (100) * %
